According to PubChem BioAssay AID248 (DTP/NCI, 2004):
Values joined by “and” are separate entries in the source; they are usually repeats but may differ in a detail not shown here. Equal entries are not always repeated. Inconclusive results and toxic doses are left out. Cut-off read from the data, not from the text of the source: active = T/C of 150% or more; inactive = T/C below 125%.

System: L1210 leukemia ip in BDF1 mice, survival T/C
Experiment: NCI In Vivo Anticancer Drug Screen. Data for tumor model L1210 Leukemia (intraperitoneal) in B6D2F1 (BDF1) mice
Conditions: endpoint: mean survival time, higher = longer survival
Method in brief: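 Tumor cells were implanted, animals were treated, and survival was followed. The result divides the treated measurement by the vehicle-control measurement.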

[1] = dose: 50.0 mg/kg/injection, schedule: Q04DX003 (ip), vehicle: Klucel (hydroxypropylcellulose) (HPC)
[2] = dose: 100.0 mg/kg/injection, schedule: Q01DX009 (ip), vehicle: Klucel (hydroxypropylcellulose) (HPC)
[3] = dose: 100.0 mg/kg/injection, schedule: Q04DX003 (ip), vehicle: Klucel (hydroxypropylcellulose) (HPC)
[4] = dose: 200.0 mg/kg/injection, schedule: Q04DX003 (ip), vehicle: Klucel (hydroxypropylcellulose) (HPC)
[5] = dose: 400.0 mg/kg/injection, schedule: Q04DX003 (ip), vehicle: Klucel (hydroxypropylcellulose) (HPC)
[6] = dose: 100.0 mg/kg/injection, schedule: Q04DX002 (ip), vehicle: Klucel (hydroxypropylcellulose) (HPC)
[7] = dose: 200.0 mg/kg/injection, schedule: Q04DX002 (ip), vehicle: Klucel (hydroxypropylcellulose) (HPC)
[8] = dose: 400.0 mg/kg/injection, schedule: Q04DX002 (ip), vehicle: Klucel (hydroxypropylcellulose) (HPC)
[9] = dose: 25.0 mg/kg/injection, schedule: Q01DX009 (ip), vehicle: saline
[10] = dose: 50.0 mg/kg/injection, schedule: Q01DX009 (ip), vehicle: saline
[11] = dose: 100.0 mg/kg/injection, schedule: Q01DX001 (ip), vehicle: carboxymethylcellulose (CMC)
[12] = dose: 200.0 mg/kg/injection, schedule: Q01DX001 (ip), vehicle: carboxymethylcellulose (CMC)
[13] = dose: 400.0 mg/kg/injection, schedule: Q01DX001 (ip), vehicle: carboxymethylcellulose (CMC)
[14] = dose: 100.0 mg/kg/injection, schedule: Q01DX009 (ip), vehicle: saline with Tween-80
[15] = dose: 100.0 mg/kg/injection, schedule: Q04DX003 (ip), vehicle: saline with Tween-80
[16] = dose: 200.0 mg/kg/injection, schedule: Q01DX009 (ip), vehicle: saline with Tween-80
[17] = dose: 200.0 mg/kg/injection, schedule: Q04DX003 (ip), vehicle: saline with Tween-80
[18] = dose: 400.0 mg/kg/injection, schedule: Q01DX009 (ip), vehicle: saline with Tween-80
[19] = dose: 400.0 mg/kg/injection, schedule: Q04DX003 (ip), vehicle: saline with Tween-80
[20] = dose: 100.0 mg/kg/injection, schedule: Q01DX001 (ip), vehicle: saline
[21] = dose: 75.0 mg/kg/injection, schedule: Q01DX001 (ip), vehicle: saline
[22] = dose: 150.0 mg/kg/injection, schedule: Q01DX001 (ip), vehicle: saline
[23] = dose: 300.0 mg/kg/injection, schedule: Q01DX001 (ip), vehicle: saline

Measured: T/C

CCCCCCCCCCN1CCC(N2CCCCC2)CC1
inactive: dose: 25.0 mg/kg/injection, schedule: Q04DX002 (ip), vehicle: saline 102 % of control | dose: 50.0 mg/kg/injection, schedule: Q04DX002 (ip), vehicle: saline 102 % of control | dose: 100.0 mg/kg/injection, schedule: Q04DX002 (ip), vehicle: saline 98 % of control and 91 % of control

O=P(CCl)(NC12CC3CC(CC(C3)C1)C2)N1CC1 (configuration not stated)
inactive: [1] 100 % of control | [2] 97 % of control | [3] 95 % of control | dose: 200.0 mg/kg/injection, schedule: Q01DX009 (ip), vehicle: Klucel (hydroxypropylcellulose) (HPC) 95 % of control | [4] 103 % of control | dose: 400.0 mg/kg/injection, schedule: Q01DX009 (ip), vehicle: Klucel (hydroxypropylcellulose) (HPC) 103 % of control | [5] 97 % of control

C/C(=N\NS(C)(=O)=O)C(C)(C)C
inactive: dose: 75.0 mg/kg/injection, schedule: Q01DX001 (ip), vehicle: other 103 % of control | dose: 150.0 mg/kg/injection, schedule: Q01DX001 (ip), vehicle: other 103 % of control | dose: 300.0 mg/kg/injection, schedule: Q01DX001 (ip), vehicle: other 97 % of control

N#Cc1c(N)[n+]([O-])c2c([n+]1[O-])CCCC2
inactive: [6] 101 % of control | [7] 104 % of control | [8] 87 % of control

CCOC(=O)N1Cc2cc3ccccc3nc2C1C1OC(CC)(C(=O)OCC)C1=O (configuration not stated)
inactive: dose: 10.0 mg/kg/injection, schedule: Q07DX002 (ip), vehicle: alcohol 96 % of control | dose: 20.0 mg/kg/injection, schedule: Q07DX002 (ip), vehicle: alcohol 105 % of control | dose: 40.0 mg/kg/injection, schedule: Q07DX002 (ip), vehicle: alcohol 89 % of control | dose: 80.0 mg/kg/injection, schedule: Q07DX002 (ip), vehicle: alcohol 105 % of control

CN(C)C=Nc1c2c(C#N)cn(C3OC(CO)C(O)C3O)c2nc[n+]1[O-] (configuration not stated)
inactive: dose: 12.5 mg/kg/injection, schedule: Q01DX005 (ip), vehicle: saline 97 % of control | dose: 12.5 mg/kg/injection, schedule: Q01DX009 (ip), vehicle: saline 104 % of control | dose: 25.0 mg/kg/injection, schedule: Q01DX005 (ip), vehicle: saline 102 % of control | [9] 104 % of control | dose: 50.0 mg/kg/injection, schedule: Q01DX005 (ip), vehicle: saline 105 % of control | [10] 109 % of control

CC(=O)/C(N=Nc1ccccc1)=C(\C)O
inactive: dose: 50.0 mg/kg/injection, schedule: Q01DX001 (ip), vehicle: carboxymethylcellulose (CMC) 90 % of control | dose: 50.0 mg/kg/injection, schedule: Q01DX009 (sc), vehicle: olive oil, sesame oil, peanut oil 113 % of control | [11] 97 % of control | dose: 100.0 mg/kg/injection, schedule: Q01DX009 (sc), vehicle: olive oil, sesame oil, peanut oil 113 % of control | [12] 87 % of control | dose: 200.0 mg/kg/injection, schedule: Q01DX009 (sc), vehicle: olive oil, sesame oil, peanut oil 101 % of control | [13] 95 % of control

COc1ccccc1NC(=O)Nc1ccc(N(C)C)cc1
inactive: [14] 91 % of control | [15] 86 % of control | [16] 96 % of control | [17] 94 % of control | [18] 102 % of control | [19] 95 % of control

Cc1ccc([N+](=O)[O-])cc1NC(=O)SCCSC(=O)Nc1cc([N+](=O)[O-])ccc1C
inactive: [3] 90 % of control | [4] 92 % of control | [5] 92 % of control

CCOC(=O)C(C)(C)C(O)C(C)C (configuration not stated)
inactive: [14] 106 % of control | [16] 103 % of control | [18] 93 % of control

Cc1ccc(SC2CC3CC2C2COCC32)cc1 (configuration not stated)
inactive: dose: 50.0 mg/kg/injection, schedule: Q01DX009 (ip), vehicle: Klucel (hydroxypropylcellulose) (HPC) 98 % of control | [2] 98 % of control | [3] 90 % of control | [4] 98 % of control

CC(C)CCC(C)c1ccncc1 (configuration not stated)
inactive: [20] 103 % of control | dose: 200.0 mg/kg/injection, schedule: Q01DX001 (ip), vehicle: saline 97 % of control | dose: 400.0 mg/kg/injection, schedule: Q01DX001 (ip), vehicle: saline 100 % of control

Cc1ccccc1N=Cc1cc(Cl)ccc1O
inactive: dose: 100.0 mg/kg/injection, schedule: Q01DX001 (ip), vehicle: Klucel (hydroxypropylcellulose) (HPC) 97 % of control | [3] 88 % of control | dose: 200.0 mg/kg/injection, schedule: Q01DX001 (ip), vehicle: Klucel (hydroxypropylcellulose) (HPC) 95 % of control | [4] 97 % of control | dose: 400.0 mg/kg/injection, schedule: Q01DX001 (ip), vehicle: Klucel (hydroxypropylcellulose) (HPC) 93 % of control | [5] 101 % of control

CCn1c(Cl)c(C(=O)O)c2ccccc21
inactive: [1] 97 % of control | [3] 97 % of control | [4] 97 % of control

CCc1ccccc1N=Nc1sc(N)nc1C
inactive: [21] 94 % of control | [22] 100 % of control | [23] 97 % of control

COc1cc(C=O)ccc1OCc1ccccc1
inactive: [14] 96 % of control and 93 % of control | [15] 110 % of control | [16] 96 % of control | [17] 94 % of control | [18] 98 % of control and 93 % of control | [19] 100 % of control

C1CCC(CCC(CCCC2CCCC2)CCCC2CCCC2)CC1
inactive: dose: 100.0 mg/kg/injection, schedule: Q01DX001 (ip), vehicle: saline with Tween-80 97 % of control | dose: 200.0 mg/kg/injection, schedule: Q01DX001 (ip), vehicle: saline with Tween-80 92 % of control | dose: 400.0 mg/kg/injection, schedule: Q01DX001 (ip), vehicle: saline with Tween-80 101 % of control

Cc1ccc(S(=O)(=O)N2CCC=Cc3ccccc32)cc1
inactive: [11] 110 % of control | [12] 102 % of control | [13] 107 % of control

CCC(C)(C)C(=O)OCc1ccccc1
inactive: dose: 50.0 mg/kg/injection, schedule: Q04DX002 (ip), vehicle: Klucel (hydroxypropylcellulose) (HPC) 105 % of control | [6] 94 % of control | [7] 94 % of control and 111 % of control | [8] 103 % of control

CCC1C(=O)NCCNC1=O
inactive: [21] 106 % of control | [22] 93 % of control | [23] 96 % of control

O=C(NOS(=O)(=O)O)c1ccccc1
inactive: dose: 25.0 mg/kg/injection, schedule: Q01DX001 (ip), vehicle: saline 94 % of control | [9] 110 % of control | dose: 25.0 mg/kg/injection, schedule: Q04DX003 (ip), vehicle: saline 98 % of control | dose: 50.0 mg/kg/injection, schedule: Q01DX001 (ip), vehicle: saline 99 % of control | [10] 97 % of control | dose: 50.0 mg/kg/injection, schedule: Q04DX003 (ip), vehicle: saline 100 % of control | [20] 100 % of control and 104 % of control | dose: 100.0 mg/kg/injection, schedule: Q04DX003 (ip), vehicle: saline 100 % of control

CC1(C)OCC(C2OC(=O)C=C2OS(=O)(=O)O)O1 (configuration not stated)
inactive: [21] 95 % of control

CC1(C)OCC(CO)O1 (configuration not stated)
inactive: [14] 101 % of control | [15] 105 % of control | [16] 98 % of control | [17] 97 % of control | [18] 104 % of control | [19] 100 % of control

C/C(=N/NC(=O)c1ccncc1)C(=O)O
inactive: dose: 25.0 mg/kg/injection, schedule: Q04DX003 (ip), vehicle: saline with Tween-80 92 % of control | dose: 50.0 mg/kg/injection, schedule: Q04DX003 (ip), vehicle: saline with Tween-80 93 % of control | [15] 101 % of control

OCC(O)C(O)C(O)CN=Cc1ccccc1O (configuration not stated)
inactive: dose: 75.0 mg/kg/injection, schedule: Q04DX002 (ip), vehicle: saline with Tween-80 106 % of control | dose: 150.0 mg/kg/injection, schedule: Q04DX002 (ip), vehicle: saline with Tween-80 98 % of control | dose: 300.0 mg/kg/injection, schedule: Q04DX002 (ip), vehicle: saline with Tween-80 109 % of control

O=C1CC(CO)CN1CCc1ccccc1 (configuration not stated)
inactive: [15] 96 % of control | [17] 94 % of control | [19] 96 % of control
